Test results reported in ChEMBL document CHEMBL1201862, “PubChem BioAssay data set” (2004).
Activity calls are given as the source filed them.

Tests used:
SUMO-activating enzyme [1] = target: T1, SUMO-activating enzyme (Homo sapiens, UniProt Q9UBT2); assay: inhibitors of in vitro SUMOylation cascade, primary screen, biochemical, HTRF, uHTS (AID 2006); assay type: protein-complex assay
[2] = target: T2, Small ubiquitin-related modifier 1 (Homo sapiens, UniProt P63165); assay: inhibitors of SUMO1 peptide binding, dose response, biochemical, fluorescence polarization, uHTS hits (AID 624382); assay type: functional; settings: read-out: IC50_Mean
[3] = target: 72 kDa type IV collagenase (Homo sapiens, UniProt P08253); assay: Dose Response validation of uHTS RPN11 inhibitor hits using a MMP-2 Fluorescence assay.; assay type: functional
SUMO-activating enzyme [4] = target: T1, SUMO-activating enzyme; assay: SUMOylation inhibitor hit validation, confirmation, SUMOylation inhibitor project, biochemical, AlphaScreen (AID 2018); assay type: functional
[5] = target: T2, Small ubiquitin-related modifier 1; assay: inhibitors of SUMO1 partner interactions, dose response, biochemical, FRET (AID 624383); assay type: functional; settings: read-out: IC50_Mean
Prothrombin = Prothrombin (Bos taurus, UniProt P00735); assay: thrombin inhibition, dose response, biochemical, fluorescence polarization, uHTS hits (AID 602369); assay type: functional
[6] = target: T3, Dual specificity protein phosphatase 3 (Homo sapiens, UniProt P51452); assay: VHR1 phosphatase inhibitors, biochemical (AID 1878)
[7] = target: T4, Dual specificity protein phosphatase 6 (Rattus norvegicus, UniProt Q64346); assay: MKP-3 phosphatase inhibitors, primary screen, biochemical, rat enzyme, in vitro (AID 425)
T4 sequence (Q64346 whole entry): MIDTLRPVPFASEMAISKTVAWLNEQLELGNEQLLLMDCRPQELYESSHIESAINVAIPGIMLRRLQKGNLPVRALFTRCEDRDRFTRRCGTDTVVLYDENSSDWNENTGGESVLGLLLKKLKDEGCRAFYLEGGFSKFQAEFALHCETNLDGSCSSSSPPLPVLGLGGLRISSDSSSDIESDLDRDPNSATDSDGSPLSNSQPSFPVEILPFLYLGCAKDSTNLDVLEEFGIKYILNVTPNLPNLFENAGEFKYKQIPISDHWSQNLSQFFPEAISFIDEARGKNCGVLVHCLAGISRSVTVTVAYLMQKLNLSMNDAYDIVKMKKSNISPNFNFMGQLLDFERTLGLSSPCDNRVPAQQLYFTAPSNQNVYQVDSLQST

[8] = target: T3, Dual specificity protein phosphatase 3; assay: VHR1 phosphatase inhibitors, primary screen, biochemical, absorbance, uHTS (AID 1654)
[9] = target: 26S proteasome non-ATPase regulatory subunit 14 (Homo sapiens, UniProt O00487); assay: inhibition of proteasome subunit RPN11 – biochemical, fluorescence polarization, uHTS hits, confirmation (AID 602368); assay type: functional
[10] = target: Intestinal-type alkaline phosphatase (Mus musculus, UniProt P24822); assay: PubChem AID 488785; assay type: functional
[11] = target: T5, Alkaline phosphatase, tissue-nonspecific isozyme (Homo sapiens, UniProt P05186); assay: TNAP enzyme inhibition by screening hits, dose response, selectivity assay for mouse IAP inhibitor project, biochemical, human TNAP, uHTS hits (AID 488906); assay type: functional
T5 sequence (P05186 whole entry): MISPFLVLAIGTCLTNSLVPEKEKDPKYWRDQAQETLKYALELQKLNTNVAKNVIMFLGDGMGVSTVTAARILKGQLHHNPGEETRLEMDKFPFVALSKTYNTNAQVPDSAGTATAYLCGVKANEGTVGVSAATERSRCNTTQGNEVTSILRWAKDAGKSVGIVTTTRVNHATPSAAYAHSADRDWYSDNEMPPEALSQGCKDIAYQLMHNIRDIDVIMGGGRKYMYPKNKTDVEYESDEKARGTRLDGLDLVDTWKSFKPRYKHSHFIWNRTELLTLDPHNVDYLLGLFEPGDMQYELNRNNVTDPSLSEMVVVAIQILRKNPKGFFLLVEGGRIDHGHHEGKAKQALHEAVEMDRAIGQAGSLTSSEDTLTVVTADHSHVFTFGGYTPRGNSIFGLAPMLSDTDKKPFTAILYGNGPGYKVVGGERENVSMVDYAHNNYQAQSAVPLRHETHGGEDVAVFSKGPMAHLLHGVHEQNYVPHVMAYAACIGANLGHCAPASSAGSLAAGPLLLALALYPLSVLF

[12] = target: Intestinal-type alkaline phosphatase (Homo sapiens, UniProt P09923); assay: inhibition of human intestinal alkaline phosphatase – biochemical, dose response (AID 488876); assay type: functional
[13] = target: T6, Zinc finger protein mex-5 (Caenorhabditis elegans, UniProt Q9XUB2); assay: MEX-5/TCR-2 RNA interaction inhibitors, dose response, biochemical, C. elegans, fluorescence polarization (AID 1960)
T6 sequence (Q9XUB2 whole entry): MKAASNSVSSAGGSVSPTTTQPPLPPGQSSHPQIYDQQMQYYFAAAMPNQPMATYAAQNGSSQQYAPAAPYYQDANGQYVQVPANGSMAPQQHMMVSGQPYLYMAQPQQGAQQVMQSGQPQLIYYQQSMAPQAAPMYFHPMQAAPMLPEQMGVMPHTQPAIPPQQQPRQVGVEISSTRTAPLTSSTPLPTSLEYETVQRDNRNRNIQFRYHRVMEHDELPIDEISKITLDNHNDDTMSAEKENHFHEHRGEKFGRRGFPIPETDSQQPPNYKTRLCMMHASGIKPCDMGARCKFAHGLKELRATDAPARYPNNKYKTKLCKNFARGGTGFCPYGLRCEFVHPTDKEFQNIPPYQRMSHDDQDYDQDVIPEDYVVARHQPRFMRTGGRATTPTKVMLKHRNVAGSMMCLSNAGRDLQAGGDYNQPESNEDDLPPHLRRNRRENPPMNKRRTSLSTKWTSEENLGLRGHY

Albumin = Albumin (Bos taurus, UniProt P02769); assay: Counterscreen for inhibitors of T-cell receptor (TCR)-CD3 interaction: Fluorescence-based biochemical high throughput dose response assay to identify inhibitors of T-cell receptor (TCR)-CD3 interaction using a TAMRA-labeled BSA probe.; assay type: functional
[14] = target: T7, RNA-binding protein pos-1 (Caenorhabditis elegans, UniProt G5EF15); assay: inhibitors of POS-1/mex-3 RNA binding, dose response, biochemical, fluorescence polarization (AID 1964);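 further: purified POS-1 fused to maltose binding protein made in E. coli; potency of compounds blocking POS-1 binding to fluorescent RNA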
T7 sequence (G5EF15 whole entry): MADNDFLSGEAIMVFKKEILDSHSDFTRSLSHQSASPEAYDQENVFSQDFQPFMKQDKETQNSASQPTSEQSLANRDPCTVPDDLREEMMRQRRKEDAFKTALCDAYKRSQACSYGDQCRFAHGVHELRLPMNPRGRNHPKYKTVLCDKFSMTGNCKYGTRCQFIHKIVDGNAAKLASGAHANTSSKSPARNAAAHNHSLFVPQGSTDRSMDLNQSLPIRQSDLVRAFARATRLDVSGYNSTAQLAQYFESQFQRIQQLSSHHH

[15] = target: FAD-linked sulfhydryl oxidase ALR (Homo sapiens, UniProt P55789); assay: inhibitors of human ALR sulfhydryl oxidase, dose response, biochemical, H2O2 detection, luminescence, cherry-pick (AID 493248)
H4 = assay: Luminescence Cell-Based Dose Response HTS to Identify Activators of 5'UTR Stem-Loop Driven Prion Protein mRNA Translation in H4 Neuroglioblastoma Cells. [Related pubchem assays: 1829 (Project Summary), 1814 (Primary HTS)]; assay type: functional; settings: Homo sapiens
[16] = target: T8, Tyrosine-protein phosphatase non-receptor type 22 (Homo sapiens, UniProt Q9Y2R2); assay type: functional
[17] = target: T8, Tyrosine-protein phosphatase non-receptor type 22; assay type: functional; remark: listed apart in the source
[18] = Luminescence Cell-Based Dose Confirmation HTS to Identify Activators of 5'UTR Stem-Loop Driven Alpha-Synuclein mRNA Translation in H4 Neuroglioblastoma Cells. [Related pubchem assays: 1829 (Project Summary), 1814 (Primary HTS)]; assay type: functional
[19] = target: T9, Tyrosine-protein phosphatase non-receptor type 7 (Homo sapiens, UniProt P35236); assay type: functional
T9 sequence (P35236 whole entry): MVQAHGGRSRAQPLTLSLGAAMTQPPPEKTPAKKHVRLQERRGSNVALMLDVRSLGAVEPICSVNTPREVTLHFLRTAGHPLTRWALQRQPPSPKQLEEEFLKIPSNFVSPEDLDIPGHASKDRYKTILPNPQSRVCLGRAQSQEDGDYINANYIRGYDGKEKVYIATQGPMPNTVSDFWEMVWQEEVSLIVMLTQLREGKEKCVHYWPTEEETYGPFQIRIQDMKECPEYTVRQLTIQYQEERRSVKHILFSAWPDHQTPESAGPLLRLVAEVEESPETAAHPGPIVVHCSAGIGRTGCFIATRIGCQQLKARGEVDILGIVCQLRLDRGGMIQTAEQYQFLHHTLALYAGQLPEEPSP

[20] = Luminescence Cell-Based Dose Response HTS to Identify Activators of Luciferase Translation or Activity in H4 […] Cells. [Related pubchem assays: 1829 (Project Summary), 1814 (Primary HTS)]; assay type: functional

T1 sequence (Q9UBE0 whole entry): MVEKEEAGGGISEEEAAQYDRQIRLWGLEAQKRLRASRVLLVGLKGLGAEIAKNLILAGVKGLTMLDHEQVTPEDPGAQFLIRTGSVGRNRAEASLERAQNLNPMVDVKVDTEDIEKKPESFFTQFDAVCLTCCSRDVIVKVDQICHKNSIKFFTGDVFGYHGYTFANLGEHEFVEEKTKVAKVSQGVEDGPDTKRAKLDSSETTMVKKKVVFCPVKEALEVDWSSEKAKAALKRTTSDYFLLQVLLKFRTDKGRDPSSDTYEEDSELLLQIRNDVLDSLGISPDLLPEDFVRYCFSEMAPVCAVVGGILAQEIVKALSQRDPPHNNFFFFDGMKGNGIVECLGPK
T1 sequence (Q9UBT2 whole entry): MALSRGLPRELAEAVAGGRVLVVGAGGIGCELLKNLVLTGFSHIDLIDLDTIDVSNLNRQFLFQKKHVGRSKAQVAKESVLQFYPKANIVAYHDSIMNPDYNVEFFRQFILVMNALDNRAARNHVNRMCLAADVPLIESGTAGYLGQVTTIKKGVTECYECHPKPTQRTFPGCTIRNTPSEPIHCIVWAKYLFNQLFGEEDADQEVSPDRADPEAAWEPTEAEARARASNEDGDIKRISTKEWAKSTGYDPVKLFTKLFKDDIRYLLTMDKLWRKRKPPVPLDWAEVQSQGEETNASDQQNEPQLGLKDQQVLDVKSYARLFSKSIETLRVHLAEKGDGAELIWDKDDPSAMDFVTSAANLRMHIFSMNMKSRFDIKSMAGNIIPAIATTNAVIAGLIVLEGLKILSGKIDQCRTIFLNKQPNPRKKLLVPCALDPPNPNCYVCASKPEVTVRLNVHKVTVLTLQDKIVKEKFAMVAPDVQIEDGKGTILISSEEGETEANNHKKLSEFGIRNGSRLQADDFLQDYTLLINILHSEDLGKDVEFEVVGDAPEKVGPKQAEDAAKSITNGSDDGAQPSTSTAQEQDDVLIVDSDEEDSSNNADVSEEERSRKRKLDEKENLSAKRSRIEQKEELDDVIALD
T3 sequence (P51452 whole entry): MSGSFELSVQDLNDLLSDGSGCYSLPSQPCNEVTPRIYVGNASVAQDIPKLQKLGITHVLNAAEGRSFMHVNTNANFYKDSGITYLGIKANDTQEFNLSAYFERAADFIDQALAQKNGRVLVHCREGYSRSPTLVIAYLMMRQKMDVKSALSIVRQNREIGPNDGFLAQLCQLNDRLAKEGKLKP
T8 sequence (Q9Y2R2 whole entry): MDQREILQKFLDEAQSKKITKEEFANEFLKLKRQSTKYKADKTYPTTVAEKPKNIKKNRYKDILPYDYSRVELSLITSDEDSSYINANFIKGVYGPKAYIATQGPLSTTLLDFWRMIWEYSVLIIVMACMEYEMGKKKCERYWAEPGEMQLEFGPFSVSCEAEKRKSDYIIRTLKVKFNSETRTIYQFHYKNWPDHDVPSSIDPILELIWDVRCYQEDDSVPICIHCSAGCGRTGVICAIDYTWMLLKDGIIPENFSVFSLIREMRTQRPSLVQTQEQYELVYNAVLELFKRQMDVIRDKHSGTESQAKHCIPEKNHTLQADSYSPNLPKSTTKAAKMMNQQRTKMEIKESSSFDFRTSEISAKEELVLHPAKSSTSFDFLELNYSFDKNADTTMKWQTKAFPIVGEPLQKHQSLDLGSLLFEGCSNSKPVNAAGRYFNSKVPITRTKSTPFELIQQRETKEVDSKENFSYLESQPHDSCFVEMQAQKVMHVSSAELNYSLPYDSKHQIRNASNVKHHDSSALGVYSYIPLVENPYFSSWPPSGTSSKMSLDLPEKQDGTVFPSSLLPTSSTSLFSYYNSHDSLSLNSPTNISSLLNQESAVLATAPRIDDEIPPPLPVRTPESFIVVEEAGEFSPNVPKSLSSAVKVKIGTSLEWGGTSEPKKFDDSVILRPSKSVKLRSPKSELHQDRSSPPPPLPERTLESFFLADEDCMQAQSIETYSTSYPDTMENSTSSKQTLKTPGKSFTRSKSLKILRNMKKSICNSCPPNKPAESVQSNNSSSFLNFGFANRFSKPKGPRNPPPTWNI
T2 sequence (P63165 whole entry): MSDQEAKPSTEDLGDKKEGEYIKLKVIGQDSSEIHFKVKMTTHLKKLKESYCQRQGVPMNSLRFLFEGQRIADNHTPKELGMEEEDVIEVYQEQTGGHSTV
Chain of FAD-linked sulfhydryl oxidase ALR (P55789 whole entry): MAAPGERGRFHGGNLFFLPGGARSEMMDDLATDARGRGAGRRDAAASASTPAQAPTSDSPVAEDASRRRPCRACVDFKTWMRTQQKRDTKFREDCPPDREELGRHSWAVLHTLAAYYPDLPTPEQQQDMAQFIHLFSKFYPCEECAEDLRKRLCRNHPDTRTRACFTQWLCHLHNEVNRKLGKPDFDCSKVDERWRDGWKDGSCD
Chain of 26S proteasome non-ATPase regulatory subunit 14 (O00487 whole entry): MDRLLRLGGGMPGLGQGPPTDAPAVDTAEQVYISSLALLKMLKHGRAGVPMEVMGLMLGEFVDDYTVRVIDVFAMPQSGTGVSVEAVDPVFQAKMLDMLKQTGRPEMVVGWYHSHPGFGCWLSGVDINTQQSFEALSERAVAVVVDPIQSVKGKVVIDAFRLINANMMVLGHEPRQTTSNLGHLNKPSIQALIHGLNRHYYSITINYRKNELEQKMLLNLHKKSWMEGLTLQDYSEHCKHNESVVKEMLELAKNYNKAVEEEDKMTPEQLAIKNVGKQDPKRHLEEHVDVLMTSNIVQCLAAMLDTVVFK
Chain of Intestinal-type alkaline phosphatase (Homo sapiens, UniProt P09923) (P09923 whole entry): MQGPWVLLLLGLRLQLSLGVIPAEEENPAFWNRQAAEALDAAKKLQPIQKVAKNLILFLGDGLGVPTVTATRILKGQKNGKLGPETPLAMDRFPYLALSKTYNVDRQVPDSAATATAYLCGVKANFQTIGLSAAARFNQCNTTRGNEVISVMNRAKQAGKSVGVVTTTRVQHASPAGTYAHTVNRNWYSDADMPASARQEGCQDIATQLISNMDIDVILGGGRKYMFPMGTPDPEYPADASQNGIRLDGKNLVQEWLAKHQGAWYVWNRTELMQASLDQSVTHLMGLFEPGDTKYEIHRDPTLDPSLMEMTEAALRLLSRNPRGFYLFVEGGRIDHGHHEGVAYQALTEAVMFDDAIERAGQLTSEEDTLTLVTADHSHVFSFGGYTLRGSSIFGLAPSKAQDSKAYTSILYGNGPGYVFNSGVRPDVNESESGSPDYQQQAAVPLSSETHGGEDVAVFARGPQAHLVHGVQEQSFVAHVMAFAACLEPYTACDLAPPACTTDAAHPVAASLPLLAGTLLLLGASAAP
Chain of Albumin (P02769 whole entry, the tested form may be a part): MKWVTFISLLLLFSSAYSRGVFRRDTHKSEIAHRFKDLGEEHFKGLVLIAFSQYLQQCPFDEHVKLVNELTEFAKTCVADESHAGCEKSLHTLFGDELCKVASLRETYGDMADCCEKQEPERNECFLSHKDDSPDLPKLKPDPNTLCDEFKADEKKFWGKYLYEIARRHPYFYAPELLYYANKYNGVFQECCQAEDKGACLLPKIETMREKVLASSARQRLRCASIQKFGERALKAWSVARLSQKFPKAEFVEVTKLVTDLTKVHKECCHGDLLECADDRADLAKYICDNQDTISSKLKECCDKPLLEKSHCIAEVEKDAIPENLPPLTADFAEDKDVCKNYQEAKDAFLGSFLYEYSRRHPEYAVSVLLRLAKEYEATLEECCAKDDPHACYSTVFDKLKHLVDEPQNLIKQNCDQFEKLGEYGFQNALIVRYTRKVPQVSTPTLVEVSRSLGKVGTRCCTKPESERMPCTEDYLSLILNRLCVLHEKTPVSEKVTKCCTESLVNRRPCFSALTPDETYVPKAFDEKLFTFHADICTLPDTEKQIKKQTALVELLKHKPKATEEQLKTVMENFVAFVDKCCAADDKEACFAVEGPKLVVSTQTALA
Chain of Intestinal-type alkaline phosphatase (Mus musculus, UniProt P24822) (P24822 whole entry): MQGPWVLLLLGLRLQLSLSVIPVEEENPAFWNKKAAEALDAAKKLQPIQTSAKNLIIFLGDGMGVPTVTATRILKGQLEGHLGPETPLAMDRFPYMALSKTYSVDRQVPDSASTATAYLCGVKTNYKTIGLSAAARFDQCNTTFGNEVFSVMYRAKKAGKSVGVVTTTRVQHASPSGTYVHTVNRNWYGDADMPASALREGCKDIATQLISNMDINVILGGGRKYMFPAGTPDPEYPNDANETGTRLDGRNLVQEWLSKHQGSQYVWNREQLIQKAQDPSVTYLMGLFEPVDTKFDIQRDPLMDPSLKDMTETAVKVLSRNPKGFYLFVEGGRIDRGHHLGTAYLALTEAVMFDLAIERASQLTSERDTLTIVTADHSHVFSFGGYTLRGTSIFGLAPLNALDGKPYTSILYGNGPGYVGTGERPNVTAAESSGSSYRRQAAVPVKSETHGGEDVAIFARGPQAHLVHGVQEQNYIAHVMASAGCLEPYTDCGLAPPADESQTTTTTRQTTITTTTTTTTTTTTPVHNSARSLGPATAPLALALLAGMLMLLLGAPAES
Chain of 72 kDa type IV collagenase (P08253 whole entry): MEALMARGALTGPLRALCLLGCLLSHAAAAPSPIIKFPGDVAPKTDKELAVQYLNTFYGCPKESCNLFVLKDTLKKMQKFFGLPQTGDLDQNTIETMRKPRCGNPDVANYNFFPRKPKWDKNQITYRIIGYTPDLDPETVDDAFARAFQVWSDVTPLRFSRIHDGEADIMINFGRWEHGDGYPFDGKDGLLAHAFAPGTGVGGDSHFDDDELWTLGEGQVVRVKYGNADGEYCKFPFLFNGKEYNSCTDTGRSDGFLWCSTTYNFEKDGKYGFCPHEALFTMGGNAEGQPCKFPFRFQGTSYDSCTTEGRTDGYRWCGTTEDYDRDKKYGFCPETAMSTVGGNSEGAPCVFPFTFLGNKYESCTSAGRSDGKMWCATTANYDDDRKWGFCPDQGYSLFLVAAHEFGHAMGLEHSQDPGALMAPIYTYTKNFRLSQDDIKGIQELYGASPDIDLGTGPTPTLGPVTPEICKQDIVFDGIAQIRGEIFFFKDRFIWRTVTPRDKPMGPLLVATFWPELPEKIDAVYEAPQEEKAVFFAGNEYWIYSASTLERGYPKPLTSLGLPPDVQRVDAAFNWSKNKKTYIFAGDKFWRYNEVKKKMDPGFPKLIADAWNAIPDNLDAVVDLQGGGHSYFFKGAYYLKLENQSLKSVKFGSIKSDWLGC

## O=C(CSc1nnc(SCc2ccc(Cl)cc2)s1)N/N=C/c1c[nH]c2ccccc12
SUMO-activating enzyme [1]
  IC50: 48.3 µM (active)
[2]
  IC50: > 66.6 µM (inactive)
[3]
  IC50: > 100 µM (inactive)
SUMO-activating enzyme [4]
  IC50: 1.54 µM (active)
[5]
  IC50: 2.02 µM (active)
Prothrombin
  IC50: 82.5 µM (active)
[6]
  IC50: 3.82 µM (active)
[7]
  IC50: 76.5 µM (active)
[8]
  IC50: 16.2 µM (active)
[9]
  IC50: 9.99 µM (active)

## O=C(N/N=C/c1cccnc1)c1cc(O)c(O)c(O)c1
[10]
  IC50: 5.77 µM (active)
[11]
  IC50: > 100 µM (inactive)
[12]
  IC50: > 100 µM (inactive)
[13]
  EC50: 4.24 µM (active)
Albumin
  IC50: > 94 µM (inactive)
[14]
  EC50: 24.8 µM (active)
[15]
  AC50: < 0.005 µM (active)

## O=C1C2C(C(=O)N1/N=C/c1cccc([N+](=O)[O-])c1)C1C=CC2C12CC2 (stereo not drawn)
H4
  EC50: 87.7 µM (active)
[16]
  IC50: > 79.4 µM (inactive)
[17]
  IC50: > 79.4 µM (inactive)
[18]
  EC50: 15.4 µM (active)
[19]
  IC50: > 79.4 µM (inactive)
[20]
  EC50: 7.44 µM (active)
